Experimental data from patent publication US20240109853A1 (Shanghai Yao Yuan Biotechnology Co., Ltd., priority 2020, published 2024).

What was measured:
[1] = test system: ALPK1-dependent NFκB reporter gene activation in HEK293 cells stably expressing an NF-kB reporter (G9 cells); test: NFκB gene reporter alkaline phosphatase assay; format: cell-based; details: Homo sapiens, HEK293; read-out: NFkB assay IC50
How it was run: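 Read-out: chromogenic pNPP turnover by NF-kB-driven alkaline phosphatase in G9 cells (HEK293, stable reporter). Compound pre-incubation 30 min before agonist D-glycero-D-manno-6-fluoro-heptose-1β-S-ADP. IC50 by four-parameter logistic regression.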

[2] = target: ALPK1 (Homo sapiens (Human), UniProt Q96QP1); test: ALPK1 in vitro kinase assay (HTRF of TIFA phosphorylation); format: biochemical
Chain of ALPK1 (Q96QP1 whole entry): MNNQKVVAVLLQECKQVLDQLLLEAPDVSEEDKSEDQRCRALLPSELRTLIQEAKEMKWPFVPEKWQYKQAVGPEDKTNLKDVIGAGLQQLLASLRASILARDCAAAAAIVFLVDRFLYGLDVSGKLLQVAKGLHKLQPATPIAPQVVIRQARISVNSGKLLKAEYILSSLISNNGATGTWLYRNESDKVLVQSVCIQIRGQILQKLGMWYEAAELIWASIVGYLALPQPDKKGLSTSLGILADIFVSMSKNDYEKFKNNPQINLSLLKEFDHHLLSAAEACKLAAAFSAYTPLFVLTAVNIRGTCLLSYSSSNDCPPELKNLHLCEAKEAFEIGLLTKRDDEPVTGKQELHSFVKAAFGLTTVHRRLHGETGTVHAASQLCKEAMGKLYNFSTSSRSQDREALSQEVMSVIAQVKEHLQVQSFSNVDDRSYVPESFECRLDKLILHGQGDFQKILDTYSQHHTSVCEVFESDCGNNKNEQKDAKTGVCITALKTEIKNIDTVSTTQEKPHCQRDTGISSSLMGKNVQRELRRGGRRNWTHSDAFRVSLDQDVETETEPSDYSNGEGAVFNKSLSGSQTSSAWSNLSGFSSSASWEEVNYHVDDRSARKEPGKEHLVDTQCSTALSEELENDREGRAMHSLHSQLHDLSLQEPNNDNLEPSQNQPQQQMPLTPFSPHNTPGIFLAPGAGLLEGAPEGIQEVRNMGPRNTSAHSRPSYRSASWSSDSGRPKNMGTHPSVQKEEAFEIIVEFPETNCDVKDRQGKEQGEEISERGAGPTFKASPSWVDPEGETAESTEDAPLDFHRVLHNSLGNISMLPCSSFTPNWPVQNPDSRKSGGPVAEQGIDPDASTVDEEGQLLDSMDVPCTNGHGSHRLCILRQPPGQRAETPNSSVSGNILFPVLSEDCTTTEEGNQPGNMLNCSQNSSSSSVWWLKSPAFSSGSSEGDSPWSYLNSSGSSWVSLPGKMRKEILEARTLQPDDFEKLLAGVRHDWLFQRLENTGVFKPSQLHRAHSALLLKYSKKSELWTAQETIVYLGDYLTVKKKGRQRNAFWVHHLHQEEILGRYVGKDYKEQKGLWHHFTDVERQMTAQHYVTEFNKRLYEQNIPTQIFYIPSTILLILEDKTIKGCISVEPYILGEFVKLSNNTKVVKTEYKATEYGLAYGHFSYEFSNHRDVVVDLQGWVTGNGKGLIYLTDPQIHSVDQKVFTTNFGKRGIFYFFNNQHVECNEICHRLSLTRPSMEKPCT

| Structure (SMILES) | IC50 [1] [nM] | IC50 [2] [nM] |
| --- | --- | --- |
| CC(C)(c1ccc(Br)cc1)c1csc(NC(=O)NCCCN2CCC(O)C2)n1 (stereo not drawn) [Example A129, 1-(4-(2-(4-bromophenyl)propan-2-yl)thiazol-2-yl)-3-(3-(3-hydroxypyrrolidin-1-yl)propyl)urea] | 510 | 40 |
| CC(C)(c1ccc(Br)cc1)c1csc(NC(=O)NCCCS(C)(=O)=O)n1 [Example A130, 1-(4-(2-(4-bromophenyl)propan-2-yl)thiazol-2-yl)-3-(3-(methylsulfonyl)propyl) urea] | 1100 | 293 |
| CC(C)(c1ccc(Br)cc1)c1csc(NC(=O)NCCS(N)(=O)=O)n1 [Example A131, 2-(3-(4-(2-(4-bromophenyl)propan-2-yl)thiazol-2-yl)ureido)ethanesulfona-mide] | 940 | 219 |
| CC(C)(c1ccc(Br)cc1)c1csc(NC(=O)NCCCS(N)(=O)=O)n1 [Example A132, 3-(3-(4-(2-(4-bromophenyl)propan-2-yl)thiazol-2-yl)ureido)propane-1-sulfonamide] | 4560 | 80 |
| COc1ccc(C(C)(C)c2csc(NC(=O)NCCCO)n2)cc1 [Example A133, 1-(3-hydroxypropyl)-3-(4-(2-(4-methoxyphenyl)propan-2-yl)thiazol-2-yl)urea] | 600 | 57 |
| COc1ccc(C(C)(C)c2csc(NC(=O)NCCCN3CCOCC3)n2)cc1 [Example A134, 1-(4-(2-(4-methoxyphenyl)propan-2-yl)thiazol-2-yl)-3-(3-morpholinopropyl)urea] | 5110 | 152 |
| COc1ccc(C(C)(C)c2csc(NC(=O)NCCCN3CCC(O)C3)n2)cc1 (stereo not drawn) [Example A135, 1-(3-(3-hydroxypyrrolidin-1-yl)propyl)-3-(4-(2-(4-methoxyphenyl)propan-2-yl)thiazol-2-yl)urea] | 1240 | 112 |
| COc1ccc(C(C)(C)c2csc(NC(=O)NCCCS(C)(=O)=O)n2)cc1 [Example A136, 1-(4-(2-(4-methoxyphenyl)propan-2-yl)thiazol-2-yl)-3-(3-(methylsulfonyl)propyl) urea] | 640 | 209 |
| COc1ccc(C(C)(C)c2csc(NC(=O)NCCS(N)(=O)=O)n2)cc1 [Example A137, 2-(3-(4-(2-(4-methoxyphenyl)propan-2-yl)thiazol-2-yl)ureido)ethanesulfona-mide] | 1960 | 42 |
| COc1ccc(C(C)(C)c2csc(NC(=O)NCCCS(N)(=O)=O)n2)cc1 [Example A138, 3-(3-(4-(2-(4-methoxyphenyl)propan-2-yl)thiazol-2-yl)ureido)propane-1-sulfonamide] | 2380 | 97 |
| COc1ccc(C(C)(C)c2csc(NC(=O)NCc3ccc(N4CCC(O)CC4)cc3)n2)cc1 [Example A139, 1-(4-(4-hydroxypiperidin-1-yl)benzyl)-3-(4-(2-(4-methoxyphenyl)propan-2-yl)thiazol-2-yl)urea] | 1350 | 261 |
| COc1ccc(C(C)(C)c2csc(NC(=O)NCc3ccc(CO)cc3)n2)cc1 [Example A140, 1-(4-(hydroxymethyl)benzyl)-3-(4-(2-(4-methoxyphenyl)propan-2-yl)thiazol-2-yl)urea] | 5520 | 131 |
| COc1ccc(C(C)(C)c2csc(NC(=O)NCCCN3CCC(N(C)C)C3)n2)cc1 (stereo not drawn) [Example A141, 1-(3-(3-(dimethylamino)pyrrolidin-1-yl)propyl)-3-(4-(2-(4-methoxyphenyl)propan-2-yl)thiazol-2-yl)urea] | 4220 | 228 |
| COc1ccc(C(C)(C)c2csc(NC(=O)NCCCN3CCN(C)CC3)n2)cc1 [Example A142, 1-(4-(2-(4-methoxyphenyl)propan-2-yl)thiazol-2-yl)-3-(3-(4-methylpiperazin-1-yl)propyl)urea] | 1330 | 180 |
| COc1ccc(C(C)(C)c2csc(NC(=O)NO)n2)cc1 [Example A144, 1-hydroxy-3-(4-(2-(4-methoxyphenyl)propan-2-yl)thiazol-2-yl)urea] | 1750 | 154 |
| COc1ccc(C(C)(C)c2csc(NC(=O)NCCCN(C)C)n2)cc1 [Example A145, 1-(3-(dimethylamino)propyl)-3-(4-(2-(4-methoxyphenyl)propan-2-yl)thiazol-2-yl)urea] | 4490 | 216 |
| CCN(CC)CCCNC(=O)Nc1nc(C(C)(C)c2ccc(OC)cc2)cs1 [Example A146, 1-(3-(diethylamino)propyl)-3-(4-(2-(4-methoxyphenyl)propan-2-yl)thiazol-2-yl)urea] | 3070 | 124 |
| CNS(=O)(=O)CCCNC(=O)Nc1nc(C(C)(C)c2ccc(OC)cc2)cs1 [Example A148, 3-(3-(4-(2-(4-methoxyphenyl)propan-2-yl)thiazol-2-yl)ureido)-N-methylpropane-1-sulfonamide] | 850 | 45 |

| Structure (SMILES) | IC50 [1] [nM] | IC50 [2] [nM] |
| --- | --- | --- |
| CNS(=O)(=O)[C@H]1C[C@@H](CNC(=O)Nc2nc(C(C)(C)c3ccc(OC)cc3)cs2)C1 [Example A149, rac-(1s,3s)-3-((3-(4-(2-(4-methoxyphenyl)propan-2-yl)thiazol-2-yl)ureido)methyl)-N-methylcyclobutane-1-sulfonamide] | 9400 | 155 |
| CNS(=O)(=O)[C@H]1C[C@H](CNC(=O)Nc2nc(C(C)(C)c3ccc(OC)cc3)cs2)C1 [Example A150, rac-(1r,3r)-3-((3-(4-(2-(4-methoxyphenyl)propan-2-yl)thiazol-2-yl)ureido)methyl)-N-methylcyclobutane-1-sulfonamide] | 1410 | 25 |
| COc1ccc(C(C)(C)c2csc(NC(=O)NC(C)c3cc(F)c(N4CCNCC4)c(F)c3)n2)cc1 (stereo not drawn) [Example A152, 1-(1-(3,5-difluoro-4-(piperazin-1-yl)phenyl)ethyl)-3-(4-(2-(4-methoxyphenyl)propan-2-yl)thiazol-2-yl)urea] | 350 | 55 |
| C#CC(C)(c1ccc(Br)cc1)c1csc(NC(=O)N2CC(O)C2)n1 (stereo not drawn) [Example A153, N-(4-(2-(4-bromophenyl)but-3-yn-2-yl)thiazol-2-yl)-3-hydroxyazetidine-1-carboxamide] | 370 | 76 |
| C#CC(C)(c1ccc(Br)cc1)c1csc(NC(=O)NCCCO)n1 (stereo not drawn) [Example A154, 1-(4-(2-(4-bromophenyl)but-3-yn-2-yl)thiazol-2-yl)-3-(3-hydroxypropyl)urea] | 380 | 21 |
| C#CC(C)(c1ccc(Br)cc1)c1csc(NC(=O)NCCN2CCOCC2)n1 (stereo not drawn) [Example A155, 1-(4-(2-(4-bromophenyl)but-3-yn-2-yl)thiazol-2-yl)-3-(2-morpholinoethyl)urea] | 900 | 30 |
| C#CC(C)(c1ccc(Br)cc1)c1csc(NC(=O)NCC(O)CO)n1 (stereo not drawn) [Example A156, 1-(4-(2-(4-bromophenyl)but-3-yn-2-yl)thiazol-2-yl)-3-(2,3-dihydroxypropyl)urea] | 380 | 22 |
| C#CC(CC)(c1ccc(Br)cc1)c1csc(NC(=O)NCCO)n1 (stereo not drawn) [Example A157, 1-(4-(3-(4-bromophenyl)pent-1-yn-3-yl)thiazol-2-yl)-3-(2-hydroxyethyl)urea] | 1360 | 22 |
| O=C(NCCO)Nc1nc(C2(c3ccc(Br)cc3)CCC2)cs1 [Example A158, 1-(4-(1-(4-bromophenyl)cyclobutyl)thiazol-2-yl)-3-(2-hydroxyethyl)urea] | 2860 | 67 |
| C#CC(C)(c1ccc(Br)cc1)c1csc(NC(=O)NCCO)n1 (stereo not drawn) [Example A159, 1-(4-(2-(4-bromophenyl)but-3-yn-2-yl)thiazol-2-yl)-3-(4-hydroxyethyl)urea] | 490 | 48 |
| C#C[C@@](C)(c1ccc(Br)cc1)c1csc(NC(=O)NCCO)n1 [Example A160, (S)-1-(4-(2-(4-bromophenyl)but-3-yn-2-yl)thiazol-2-yl)-3-(2-hydroxyethyl)urea] | 170 | 10 |
| C#C[C@](C)(c1ccc(Br)cc1)c1csc(NC(=O)NCCO)n1 [Example A161, (R)-1-(4-(2-(4-bromophenyl)but-3-yn-2-yl)thiazol-2-yl)-3-(2-hydroxyethyl)urea] | 550 | 68 |
| C#CC(C)(c1ccc(Br)cc1)c1csc(NC(N)=O)n1 (stereo not drawn) [Example A162, 1-(4-(2-(4-bromophenyl)but-3-yn-2-yl)thiazol-2-yl)urea] | 180 | 38 |
| C#CC(C)(c1ccc(Br)cc1)c1csc(NC(=O)N2CC(CO)C2)n1 (stereo not drawn) [Example A165, N-(4-(2-(4-bromophenyl)but-3-yn-2-yl)thiazol-2-yl)-3-(hydroxymethyl)azetidine-1-carboxamide] | 730 | 138 |
| C#C[C@](C)(c1ccc(Br)cc1)c1csc(NC(=O)N2CC(CO)C2)n1 [Example A166, (R)-N-(4-(2-(4-bromophenyl)but-3-yn-2-yl)thiazol-2-yl)-3-(hydroxymethyl)azetidine-1-carboxamide] | 5710 | 25 |
| C#C[C@@](C)(c1ccc(Br)cc1)c1csc(NC(=O)N2CC(CO)C2)n1 [Example A167, (S)-N-(4-(2-(4-bromophenyl)but-3-yn-2-yl)thiazol-2-yl)-3-(hydroxymethyl)azetidine-1-carboxamide] | 740 | 7 |
| C#CC(C)(c1ccc(OC)cc1)c1csc(NC(=O)NCCO)n1 (stereo not drawn) [Example A168, 1-(2-hydroxyethyl)-3-(4-(2-(4-methoxyphenyl)but-3-yn-2-yl)thiazol-2-yl)urea] | 400 | 27 |
| C#C[C@](C)(c1ccc(OC)cc1)c1csc(NC(=O)NCCO)n1 [Example A169, (R)-1-(2-hydroxyethyl)-3-(4-(2-(4-methoxyphenyl)but-3-yn-2-yl)thiazol-2-yl)urea] | 1670 | 23 |
